For eight compounds, IC50 and Ki results are on record in ChEMBL document CHEMBL1909046, “DrugMatrix in vitro pharmacology data”.

The IC50 is the concentration needed to halve the response being measured. As a reminder, the Ki is a dissociation constant, usually derived from enzyme kinetics or from competition with a known ligand.

A short description of test [1]: DRUGMATRIX: Glutamate, NMDA, Phencyclidine radioligand binding (ligand: [3H] TCP). Type of test: cell membranes, Rattus norvegicus, Wistar, Cerebral cortex, Membrane. Particulars: Not Active = under 50% inhibition at 10 µM.
The target of test [2] is T1, C-X-C chemokine receptor type 1 (Homo sapiens, UniProt P25024). Further: in other assays of this panel Not Active means under 50% inhibition at 10 µM.
T1 sequence (P25024 whole entry): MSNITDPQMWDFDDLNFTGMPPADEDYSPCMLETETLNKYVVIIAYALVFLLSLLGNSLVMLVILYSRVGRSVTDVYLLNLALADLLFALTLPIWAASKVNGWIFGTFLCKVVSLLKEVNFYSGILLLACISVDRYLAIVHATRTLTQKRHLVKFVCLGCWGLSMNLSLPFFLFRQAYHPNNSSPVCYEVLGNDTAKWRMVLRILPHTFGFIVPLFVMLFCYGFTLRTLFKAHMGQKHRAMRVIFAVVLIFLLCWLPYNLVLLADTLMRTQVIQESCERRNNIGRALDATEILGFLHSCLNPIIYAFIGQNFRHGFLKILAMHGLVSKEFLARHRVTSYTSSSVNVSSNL

A short description of test [3]: DRUGMATRIX: Nicotinic Acetylcholine radioligand binding (ligand: [125I] Epibatidine). Type of test: cell membranes, Membrane. The conditions noted are these: imr-32; Not Active = under 50% inhibition at 10 µM.
Test [4] concerns the target Platelet-activating factor receptor (Homo sapiens, UniProt P25105). Type of test: tissue-based. Further: in other assays of this panel Not Active means under 50% inhibition at 10 µM.
Test [5] has as its target T2, Nitric oxide synthase, inducible (Mus musculus, UniProt P29477).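 Further: inhibition of iNOS enzyme activity measured with L-arginine as substrate; in other assays of this panel Not Active means under 50% inhibition at 10 µM.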
T2 sequence (P29477 whole entry): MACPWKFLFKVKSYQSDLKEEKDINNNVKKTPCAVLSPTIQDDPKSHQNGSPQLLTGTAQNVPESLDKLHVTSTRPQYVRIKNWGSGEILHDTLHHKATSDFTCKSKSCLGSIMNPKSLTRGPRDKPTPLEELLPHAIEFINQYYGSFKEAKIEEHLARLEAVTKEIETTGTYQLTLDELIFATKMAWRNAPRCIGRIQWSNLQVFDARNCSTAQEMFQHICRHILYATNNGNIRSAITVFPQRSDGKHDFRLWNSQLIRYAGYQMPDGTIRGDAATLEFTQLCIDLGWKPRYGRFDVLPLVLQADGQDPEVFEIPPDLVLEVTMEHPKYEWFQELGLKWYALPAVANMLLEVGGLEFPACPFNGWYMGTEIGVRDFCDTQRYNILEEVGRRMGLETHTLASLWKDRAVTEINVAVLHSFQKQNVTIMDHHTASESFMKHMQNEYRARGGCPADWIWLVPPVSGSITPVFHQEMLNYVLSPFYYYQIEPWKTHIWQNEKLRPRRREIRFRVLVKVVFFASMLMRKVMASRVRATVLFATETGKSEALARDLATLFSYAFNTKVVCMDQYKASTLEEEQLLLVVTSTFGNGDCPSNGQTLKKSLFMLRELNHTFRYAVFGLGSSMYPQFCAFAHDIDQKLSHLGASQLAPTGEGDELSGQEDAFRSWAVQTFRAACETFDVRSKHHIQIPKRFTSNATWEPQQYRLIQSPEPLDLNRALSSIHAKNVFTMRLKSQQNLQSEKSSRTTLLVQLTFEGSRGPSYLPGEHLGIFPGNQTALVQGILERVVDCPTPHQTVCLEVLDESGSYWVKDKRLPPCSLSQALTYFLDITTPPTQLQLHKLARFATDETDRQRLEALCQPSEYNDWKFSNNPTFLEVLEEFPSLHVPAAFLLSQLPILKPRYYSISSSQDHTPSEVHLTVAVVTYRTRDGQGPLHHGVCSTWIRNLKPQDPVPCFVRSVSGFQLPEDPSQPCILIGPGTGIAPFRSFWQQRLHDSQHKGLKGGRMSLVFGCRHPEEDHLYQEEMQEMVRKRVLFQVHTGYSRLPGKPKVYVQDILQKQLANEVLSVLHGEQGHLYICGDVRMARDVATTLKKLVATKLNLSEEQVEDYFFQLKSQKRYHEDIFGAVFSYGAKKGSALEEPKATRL
Also noted: species or system Escherichia coli.

Test [6] is described as follows: DRUGMATRIX: GABAA, Flunitrazepam, Central radioligand binding (ligand: [3H] Flunitrazepam). Type of test: cell membranes, Rattus norvegicus, Wistar, Brain, Membrane. Particulars: Not Active = under 50% inhibition at 10 µM.
Test [7] deals with T3, 3-hydroxy-3-methylglutaryl-coenzyme A reductase (Homo sapiens, UniProt P04035).
T3 sequence (P04035 whole entry): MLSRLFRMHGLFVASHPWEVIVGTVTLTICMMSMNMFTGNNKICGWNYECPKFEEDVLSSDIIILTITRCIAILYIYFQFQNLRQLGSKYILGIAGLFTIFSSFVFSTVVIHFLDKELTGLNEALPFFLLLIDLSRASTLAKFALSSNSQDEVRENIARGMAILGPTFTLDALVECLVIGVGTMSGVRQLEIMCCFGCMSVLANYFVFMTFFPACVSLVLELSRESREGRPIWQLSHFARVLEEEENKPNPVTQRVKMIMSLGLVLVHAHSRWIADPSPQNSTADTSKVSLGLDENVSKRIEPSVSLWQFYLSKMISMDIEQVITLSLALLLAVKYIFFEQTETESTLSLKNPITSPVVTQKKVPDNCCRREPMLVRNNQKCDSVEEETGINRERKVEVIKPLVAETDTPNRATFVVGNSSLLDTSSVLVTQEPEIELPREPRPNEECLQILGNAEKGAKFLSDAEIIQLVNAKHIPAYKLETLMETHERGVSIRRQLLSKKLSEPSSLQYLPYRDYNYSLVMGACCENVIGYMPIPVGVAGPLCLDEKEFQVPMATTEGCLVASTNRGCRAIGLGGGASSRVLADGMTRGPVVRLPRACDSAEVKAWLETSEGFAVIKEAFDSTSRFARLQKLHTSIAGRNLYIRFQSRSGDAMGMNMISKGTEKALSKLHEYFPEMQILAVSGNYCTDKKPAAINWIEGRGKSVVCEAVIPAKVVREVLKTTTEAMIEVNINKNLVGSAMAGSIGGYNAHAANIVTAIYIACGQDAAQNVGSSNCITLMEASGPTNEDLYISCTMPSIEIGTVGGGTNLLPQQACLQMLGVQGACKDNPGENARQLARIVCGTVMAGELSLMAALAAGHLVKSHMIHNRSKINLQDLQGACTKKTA
Also noted: species or system Escherichia coli.

Chain of Platelet-activating factor receptor (P25105 whole entry): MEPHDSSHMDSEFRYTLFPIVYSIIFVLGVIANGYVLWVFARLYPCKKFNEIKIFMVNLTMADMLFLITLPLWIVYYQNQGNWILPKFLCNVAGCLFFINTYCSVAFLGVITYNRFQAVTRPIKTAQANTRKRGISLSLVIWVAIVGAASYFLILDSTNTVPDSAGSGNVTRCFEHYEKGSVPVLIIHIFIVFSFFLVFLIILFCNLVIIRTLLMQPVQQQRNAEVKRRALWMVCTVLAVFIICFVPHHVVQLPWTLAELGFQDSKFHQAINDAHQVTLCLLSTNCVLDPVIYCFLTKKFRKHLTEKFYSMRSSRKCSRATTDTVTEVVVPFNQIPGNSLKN

For the compound `Cc1ccc(Cl)c(Nc2ccccc2C(=O)O)c1Cl` [MECLOFENAMIC ACID], the IC50 entry in test [1], in test [2], in test [3], in test [4], in test [5] and in test [6] was “Not Active” in each case. For the same compound, the IC50 result in test [7] is listed as “Not Active”. For the same compound, the Ki result in test [1], in test [3] and in test [6] was “Not Active” each time.
As for `CC(=O)O[C@]1(C(C)=O)CC[C@H]2[C@@H]3C[C@H](C)C4=CC(=O)CC[C@]4(C)[C@H]3CC[C@@]21C` [MEDROXYPROGESTERONE ACETATE], the IC50 result was “Not Active” in test [1]; “Not Active” in test [2]; “Not Active” in test [3]; “Not Active” in test [4]; “Not Active” in test [5]; 7.74 µM in test [6] (read-out: IC50). Further, the IC50 result in test [7] was “Not Active”. Moreover, the results for the Ki result in test [1], in test [3] and in test [6] (read-out: Ki) were “Not Active”, “Not Active” and 6.3 µM, respectively.
For the compound `Cc1cnc(NC(=O)C2=C(O)c3ccccc3S(=O)(=O)N2C)s1` [MELOXICAM], the IC50 entry in test [1], in test [2], in test [3], in test [4], in test [5] and in test [6] was “Not Active” each time. For the same compound, the half-inhibitory concentration (IC50) result in test [7] is recorded as “Not Active”. In addition, the Ki entry in test [1], in test [3] and in test [6] was “Not Active” throughout.
With `CN1C[C@H](CNC(=O)OCc2ccccc2)C[C@@H]2c3cccc4c3c(cn4C)C[C@H]21` [METERGOLINE], the IC50 entry in test [1], in test [2], in test [3], in test [4], in test [5] and in test [6] was “Not Active” throughout. The half-inhibitory concentration (IC50) entry in test [7] is “Not Active”. The inhibition constant Ki result in test [1], in test [3] and in test [6] was “Not Active” throughout.
As to `C[N+]1(C)[C@@H]2C[C@@H](OC(=O)[C@H](CO)c3ccccc3)C[C@H]1[C@@H]1O[C@@H]12.[Br-]` [METHSCOPOLAMINE BROMIDE], the 50% inhibitory concentration (IC50) entry in test [1], in test [2], in test [3], in test [4], in test [5] and in test [6] was “Not Active” each time. The half-maximal inhibitory concentration (IC50) result in test [7] is reported as “Not Active”. The inhibitory constant (Ki) result in test [1], in test [3] and in test [6] was “Not Active” each time.
Consider `CCN(CC)CCNC(=O)c1cc(Cl)c(N)cc1OC` [METOCLOPRAMIDE], for which the 50% inhibitory concentration (IC50) entry in test [1], in test [2], in test [3], in test [4], in test [5] and in test [6] was “Not Active” each time. Also, in test [7], the IC50 entry is given as “Not Active”. Besides, the inhibition constant Ki entry in test [1], in test [3] and in test [6] was “Not Active” each time.
As for `CC[C@H](C)C(=O)O[C@H]1CCC=C2C=C[C@H](C)[C@H](CC[C@@H]3C[C@@H](O)CC(=O)O3)[C@H]21` [MEVASTATIN], the IC50 entry in test [1], in test [2], in test [3], in test [4], in test [5] and in test [6] was “Not Active” in each case. Besides, the IC50 in test [7] (read-out: IC50) was determined as 0.119 µM. The Ki entry in test [1], in test [3] and in test [6] was “Not Active” each time.
As to `CC#C[C@]1(O)CC[C@H]2[C@@H]3CCC4=CC(=O)CCC4=C3[C@@H](c3ccc(N(C)C)cc3)C[C@@]21C` [MIFEPRISTONE], the concentration for half-maximal inhibition (IC50) entry in test [1], in test [2], in test [3], in test [4], in test [5] and in test [6] was “Not Active” each time. Also, the 50% inhibitory concentration (IC50) entry in test [7] was “Not Active”. The Ki entry in test [1], in test [3] and in test [6] was “Not Active” throughout.
